# Reference: PubChem BioAssay AID220 (DTP/NCI, 2004)
# “And” between values parts separate entries of the source, which are not always exact repeats. Equal entries are not always repeated. Records with an inconclusive call do not appear.
# System: CD8F1 mice, subcutaneous mammary adenocarcinoma, T/C%
# Experiment: NCI In Vivo Anticancer Drug Screen. Data for tumor model Mammary Adenocarcinoma CD8F1 (subcutaneous) in CD8F1
# Conditions: higher = larger tumour
# Method in brief: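 Ratio of treated to vehicle-control outcome, based on either survival or tumor size, in mice bearing transplantable tumors given the test compound.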
# [1] = endpoint: median tumor weight change, dose: 500.0 mg/kg/injection, schedule: Q01DX001 (ip), vehicle: saline with Tween-80
# [2] = endpoint: median tumor weight change, dose: 62.5 mg/kg/injection, schedule: Q01DX001 (ip), vehicle: Klucel (hydroxypropylcellulose) (HPC)
# [3] = endpoint: median tumor weight change, dose: 125.0 mg/kg/injection, schedule: Q01DX001 (ip), vehicle: Klucel (hydroxypropylcellulose) (HPC)
# [4] = endpoint: median tumor weight change, dose: 250.0 mg/kg/injection, schedule: Q01DX001 (ip), vehicle: Klucel (hydroxypropylcellulose) (HPC)
# [5] = endpoint: median tumor weight change, dose: 500.0 mg/kg/injection, schedule: Q01DX001 (ip), vehicle: Klucel (hydroxypropylcellulose) (HPC)
# [6] = endpoint: median tumor weight change, dose: 1000.0 mg/kg/injection, schedule: Q01DX001 (ip), vehicle: Klucel (hydroxypropylcellulose) (HPC)
compound,measurement,setting,value
O=C1C=C[C@H](O)[C@@]2(CO)O[C@@H]12,T/C,"endpoint: median tumor weight change, dose: 3.12 mg/kg/injection, schedule: Q01DX001 (ip), vehicle: saline with Tween-80",65 % of control
same,T/C,"endpoint: median tumor weight change, dose: 6.25 mg/kg/injection, schedule: Q01DX001 (ip), vehicle: saline with Tween-80",61 % of control
same,T/C,"endpoint: median tumor weight change, dose: 12.5 mg/kg/injection, schedule: Q01DX001 (ip), vehicle: saline with Tween-80",90 % of control
Nc1ccc(Cl)cc1N,T/C,"endpoint: median tumor weight (est.), dose: 12.5 mg/kg/injection, schedule: Q07DX005 (ip), vehicle: saline + alcohol",92 % of control
same,T/C,"endpoint: median tumor weight (est.), dose: 25.0 mg/kg/injection, schedule: Q07DX005 (ip), vehicle: saline + alcohol",100 % of control
same,T/C,"endpoint: median tumor weight (est.), dose: 50.0 mg/kg/injection, schedule: Q07DX005 (ip), vehicle: saline + alcohol",100 % of control
same,T/C,"endpoint: median tumor weight (est.), dose: 100.0 mg/kg/injection, schedule: Q07DX005 (ip), vehicle: saline + alcohol",88 % of control
same,T/C,"endpoint: median tumor weight (est.), dose: 200.0 mg/kg/injection, schedule: Q07DX005 (ip), vehicle: saline + alcohol",123 % of control
COc1cc(Cc2nccc3cc(OC)c(OC)cc23)c(C(C)=O)c(OC)c1,T/C,"endpoint: median tumor weight (est.), dose: 10.0 mg/kg/injection, schedule: Q07DX005 (ip), vehicle: suspension in saline",57 % of control
same,T/C,"endpoint: median tumor weight (est.), dose: 20.0 mg/kg/injection, schedule: Q07DX005 (ip), vehicle: suspension in saline",45 % of control
same,T/C,"endpoint: median tumor weight (est.), dose: 40.0 mg/kg/injection, schedule: Q07DX005 (ip), vehicle: suspension in saline",46 % of control
same,T/C,"endpoint: median tumor weight (est.), dose: 80.0 mg/kg/injection, schedule: Q07DX005 (ip), vehicle: suspension in saline",61 % of control
same,T/C,"endpoint: median tumor weight (est.), dose: 160.0 mg/kg/injection, schedule: Q07DX005 (ip), vehicle: suspension in saline",49 % of control
C[C@@](O)(/C=C/[C@H]1CC=CC(=O)O1)[C@@H](C[C@@H](O)\C=C/C=C\C=C\CO)OP(=O)(O)O,T/C,"endpoint: median tumor weight change, dose: 15.62 mg/kg/injection, schedule: Q01DX001 (ip), vehicle: other",99 % of control
same,T/C,"endpoint: median tumor weight change, dose: 31.25 mg/kg/injection, schedule: Q01DX001 (ip), vehicle: other",83 % of control
same,T/C,"endpoint: median tumor weight change, dose: 62.5 mg/kg/injection, schedule: Q01DX001 (ip), vehicle: other",42 % of control
CCCCCCCCCCCCCC#CC(=O)O,T/C,"endpoint: median tumor weight change, dose: 62.5 mg/kg/injection, schedule: Q01DX001 (ip), vehicle: saline with Tween-80",75 % of control and 95 % of control
same,T/C,"endpoint: median tumor weight change, dose: 125.0 mg/kg/injection, schedule: Q01DX001 (ip), vehicle: saline with Tween-80",68 % of control and 81 % of control
same,T/C,"endpoint: median tumor weight change, dose: 250.0 mg/kg/injection, schedule: Q01DX001 (ip), vehicle: saline with Tween-80",72 % of control
same,T/C,[1],78 % of control
O=NN(CCF)C(=O)NC1CCCCC1,T/C,"endpoint: median tumor weight change, dose: 4.0 mg/kg/injection, schedule: Q01DX001 (ip), vehicle: Klucel (hydroxypropylcellulose) (HPC)",87 % of control
same,T/C,"endpoint: median tumor weight change, dose: 16.0 mg/kg/injection, schedule: Q01DX001 (ip), vehicle: Klucel (hydroxypropylcellulose) (HPC)",44 % of control
same,T/C,"endpoint: median tumor weight change, dose: 31.0 mg/kg/injection, schedule: Q01DX001 (ip), vehicle: Klucel (hydroxypropylcellulose) (HPC)",45 % of control
same,T/C,[2],30 % of control
Cc1c2cc[n+](CCN3CCCCC3)cc2c(C)c2c1[nH]c1ccc(O)cc12,T/C,"endpoint: median tumor weight change, dose: 7.81 mg/kg/injection, schedule: Q01DX001 (ip), vehicle: suspension in saline",83 % of control
same,T/C,"endpoint: median tumor weight change, dose: 15.6 mg/kg/injection, schedule: Q01DX001 (ip), vehicle: suspension in saline",102 % of control and 116 % of control
O=[Te]=O,T/C,"endpoint: median tumor weight change, dose: 6.25 mg/kg/injection, schedule: Q01DX001 (ip), vehicle: suspension in saline",73 % of control
same,T/C,"endpoint: median tumor weight change, dose: 12.5 mg/kg/injection, schedule: Q01DX001 (ip), vehicle: suspension in saline",83 % of control
same,T/C,"endpoint: median tumor weight change, dose: 25.0 mg/kg/injection, schedule: Q01DX001 (ip), vehicle: suspension in saline",61 % of control
same,T/C,"endpoint: median tumor weight change, dose: 50.0 mg/kg/injection, schedule: Q01DX001 (ip), vehicle: suspension in saline",94 % of control
same,T/C,"endpoint: median tumor weight change, dose: 100.0 mg/kg/injection, schedule: Q01DX001 (ip), vehicle: suspension in saline",106 % of control
CC(C)CCCCCCCCCCCCC(=O)NCC(=O)NC1C(C)OC(Nc2ncnc3nc[nH]c23)C(O)C1O (centres undefined),T/C,"endpoint: median tumor weight (est.), dose: 8.0 mg/kg/injection, schedule: Q07DX005 (ip), vehicle: distilled water + Tween-80",51 % of control
same,T/C,"endpoint: median tumor weight (est.), dose: 16.0 mg/kg/injection, schedule: Q07DX005 (ip), vehicle: distilled water + Tween-80",12 % of control
COc1ccc(C(=O)c2no[n+]([O-])c2C(=O)c2ccc(OC)cc2)cc1,T/C,[1],84 % of control
COc1cc(C(=O)c2cocc2C(=O)c2ccc3c(c2)OCO3)cc(OC)c1OC,T/C,[3],92 % of control
same,T/C,[4],73 % of control
same,T/C,[5],62 % of control
same,T/C,[6],40 % of control
O=C1N[C@H]2[C@H](CS[C@H]2CCCCC(=O)N(CCP(c2ccccc2)c2ccccc2)CCP(c2ccccc2)c2ccccc2)N1,T/C,[3],97 % of control
same,T/C,[4],70 % of control
same,T/C,[5],85 % of control
same,T/C,[6],55 % of control
same,T/C,"endpoint: median tumor weight change, dose: 2000.0 mg/kg/injection, schedule: Q01DX001 (ip), vehicle: Klucel (hydroxypropylcellulose) (HPC)",56 % of control
COc1ccc2c(c1)C(O)(CN)CCCCC(OC)CCCC2 (centres undefined),T/C,[2],121 % of control
CC1CC(C)CC(C)C(O)/C(C#N)=C/C=C/CC(C2CCCC2C(=O)O)OC(=O)CC(O)C(C)C1 (centres undefined),T/C,"endpoint: median tumor weight (est.), dose: 0.5 mg/kg/injection, schedule: Q07DX005 (ip), vehicle: Klucel (hydroxypropylcellulose) (HPC)",71 % of control
same,T/C,"endpoint: median tumor weight (est.), dose: 1.0 mg/kg/injection, schedule: Q07DX005 (ip), vehicle: Klucel (hydroxypropylcellulose) (HPC)",59 % of control
same,T/C,"endpoint: median tumor weight (est.), dose: 2.0 mg/kg/injection, schedule: Q07DX005 (ip), vehicle: Klucel (hydroxypropylcellulose) (HPC)",71 % of control
same,T/C,"endpoint: median tumor weight (est.), dose: 3.0 mg/kg/injection, schedule: Q07DX005 (ip), vehicle: Klucel (hydroxypropylcellulose) (HPC)",105 % of control
same,T/C,"endpoint: median tumor weight (est.), dose: 4.0 mg/kg/injection, schedule: Q07DX005 (ip), vehicle: Klucel (hydroxypropylcellulose) (HPC)",114 % of control
same,T/C,"endpoint: median tumor weight (est.), dose: 6.0 mg/kg/injection, schedule: Q07DX005 (ip), vehicle: Klucel (hydroxypropylcellulose) (HPC)",124 % of control
same,T/C,"endpoint: median tumor weight (est.), dose: 8.0 mg/kg/injection, schedule: Q07DX005 (ip), vehicle: Klucel (hydroxypropylcellulose) (HPC)",36 % of control
same,T/C,"endpoint: median tumor weight (est.), dose: 12.0 mg/kg/injection, schedule: Q07DX005 (ip), vehicle: Klucel (hydroxypropylcellulose) (HPC)",102 % of control
same,T/C,"endpoint: median tumor weight (est.), dose: 16.0 mg/kg/injection, schedule: Q07DX005 (ip), vehicle: Klucel (hydroxypropylcellulose) (HPC)",14 % of control
COc1nc(C(Cl)(Cl)Cl)c(Cl)c(OC)c1Cl,T/C,"endpoint: median tumor weight change, dose: 60.0 mg/kg/injection, schedule: Q01DX005 (ip), vehicle: Klucel (hydroxypropylcellulose) (HPC)",32 % of control
same,T/C,[2],174 % of control
same,T/C,[3],81 % of control and 95 % of control
same,T/C,"endpoint: median tumor weight change, dose: 200.0 mg/kg/injection, schedule: Q01DX005 (ip), vehicle: Klucel (hydroxypropylcellulose) (HPC)",-15 % of control
COc1cccc2c1C(=O)c1c(O)c3c(c(O)c1C2=O)C[C@@](O)(C(C)=O)C[C@@H]3OC1CC(N)C(O)C(C)O1 (some centres undefined),T/C,"endpoint: median tumor weight (est.), dose: 0.5 mg/kg/injection, schedule: Q07DX005 (ip), vehicle: water",41 % of control
same,T/C,"endpoint: median tumor weight (est.), dose: 1.0 mg/kg/injection, schedule: Q07DX005 (ip), vehicle: water",43 % of control
same,T/C,"endpoint: median tumor weight (est.), dose: 1.2 mg/kg/injection, schedule: Q07DX005 (ip), vehicle: saline",91 % of control
same,T/C,"endpoint: median tumor weight (est.), dose: 1.78 mg/kg/injection, schedule: Q07DX005 (ip), vehicle: water",43 % of control
same,T/C,"endpoint: median tumor weight (est.), dose: 1.8 mg/kg/injection, schedule: Q07DX005 (ip), vehicle: saline",72 % of control
same,T/C,"endpoint: median tumor weight (est.), dose: 2.0 mg/kg/injection, schedule: Q07DX005 (ip), vehicle: water",38 % of control
same,T/C,"endpoint: median tumor weight (est.), dose: 2.67 mg/kg/injection, schedule: Q07DX005 (ip), vehicle: water",20 % of control
same,T/C,"endpoint: median tumor weight (est.), dose: 2.7 mg/kg/injection, schedule: Q07DX005 (ip), vehicle: saline",61 % of control
Cc1cc2nc3[nH]c4ccccc4c3nc2cc1C,T/C,"endpoint: median tumor weight (est.), dose: 12.5 mg/kg/injection, schedule: Q07DX005 (ip), vehicle: suspension in saline",88 % of control
same,T/C,"endpoint: median tumor weight (est.), dose: 25.0 mg/kg/injection, schedule: Q07DX005 (ip), vehicle: suspension in saline",52 % of control
same,T/C,"endpoint: median tumor weight (est.), dose: 50.0 mg/kg/injection, schedule: Q07DX005 (ip), vehicle: suspension in saline",73 % of control
same,T/C,"endpoint: median tumor weight (est.), dose: 100.0 mg/kg/injection, schedule: Q07DX005 (ip), vehicle: suspension in saline",81 % of control
same,T/C,"endpoint: median tumor weight (est.), dose: 200.0 mg/kg/injection, schedule: Q07DX005 (ip), vehicle: suspension in saline",88 % of control
same,T/C,"endpoint: median tumor weight (est.), dose: 400.0 mg/kg/injection, schedule: Q07DX005 (ip), vehicle: suspension in saline",100 % of control
COC(=O)C(N)Cc1ccc(O)c(O)c1 (centres undefined),T/C,"endpoint: median tumor weight (est.), dose: 100.0 mg/kg/injection, schedule: Q07DX005 (ip), vehicle: saline",195 % of control
same,T/C,"endpoint: median tumor weight (est.), dose: 400.0 mg/kg/injection, schedule: Q07DX005 (ip), vehicle: saline",112 % of control
same,T/C,"endpoint: median tumor weight (est.), dose: 800.0 mg/kg/injection, schedule: Q07DX005 (ip), vehicle: saline",108 % of control
